Measurements: paper PMC9292024 (The New Phytologist, 2021)

Assays:
SbMAX1c = biological target: T1, SbMAX1c (Sorghum bicolor, UniProt A0A809Q895); experiment: yeast microsome conversion, LC-MS/MS; type: biochemical; details: 33 μM rac-CL, 500 μM NADPH, 28°C, 1 h
T1 sequence (A0A809Q895 1-545): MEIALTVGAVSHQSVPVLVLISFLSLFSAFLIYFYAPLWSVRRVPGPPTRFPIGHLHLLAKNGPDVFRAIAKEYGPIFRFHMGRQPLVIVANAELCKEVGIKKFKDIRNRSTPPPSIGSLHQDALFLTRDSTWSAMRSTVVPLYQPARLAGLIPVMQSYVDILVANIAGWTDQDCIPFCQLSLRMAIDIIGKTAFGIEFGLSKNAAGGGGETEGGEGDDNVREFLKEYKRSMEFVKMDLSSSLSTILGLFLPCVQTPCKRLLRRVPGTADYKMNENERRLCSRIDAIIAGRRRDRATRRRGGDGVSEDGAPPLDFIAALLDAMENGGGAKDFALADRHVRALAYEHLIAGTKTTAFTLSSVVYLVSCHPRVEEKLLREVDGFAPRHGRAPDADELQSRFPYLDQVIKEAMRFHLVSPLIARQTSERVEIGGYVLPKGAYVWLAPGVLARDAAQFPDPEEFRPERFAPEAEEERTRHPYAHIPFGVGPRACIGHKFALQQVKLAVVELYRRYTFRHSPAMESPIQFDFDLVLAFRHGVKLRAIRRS

SbMAX1d = biological target: T2, SbMAX1d (Sorghum bicolor, UniProt A0A809QVY0); experiment: yeast microsome conversion, LC-MS/MS; type: biochemical; details: 33 μM rac-CL, 500 μM NADPH, 28°C, 1 h
T2 sequence (A0A809QVY0 1-539): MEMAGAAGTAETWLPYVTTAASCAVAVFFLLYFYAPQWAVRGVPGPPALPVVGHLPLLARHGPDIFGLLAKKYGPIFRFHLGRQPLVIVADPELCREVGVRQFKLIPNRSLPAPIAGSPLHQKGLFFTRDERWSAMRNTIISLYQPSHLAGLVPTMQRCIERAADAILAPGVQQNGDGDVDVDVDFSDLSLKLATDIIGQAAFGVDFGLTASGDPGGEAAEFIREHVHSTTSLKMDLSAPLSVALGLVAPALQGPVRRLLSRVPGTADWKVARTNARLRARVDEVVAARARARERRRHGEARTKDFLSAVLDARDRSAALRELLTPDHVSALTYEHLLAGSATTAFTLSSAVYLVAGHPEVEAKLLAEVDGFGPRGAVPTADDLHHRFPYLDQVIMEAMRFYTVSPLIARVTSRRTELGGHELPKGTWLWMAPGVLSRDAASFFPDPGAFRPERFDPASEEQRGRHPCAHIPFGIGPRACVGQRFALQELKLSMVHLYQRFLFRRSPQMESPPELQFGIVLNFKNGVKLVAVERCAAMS

`CC1=CC(O/C=C(C)\C=C\C2=C(C)CCCC2(C)C)OC1=O` (racemic) [rac‐CL] was tested, and the “yeast microsome conversion, LC-MS/MS” value (SbMAX1c) was “expressing SbMAX1b, SbMAX1c, or SbMAX1d after incubation with rac‐CL” and the “yeast microsome conversion, LC-MS/MS” value (SbMAX1d) was “expressing SbMAX1b, SbMAX1c, or SbMAX1d after incubation with rac‐CL”.
